Laboratory results reported in US9688695B2, “Imidazothiadiazole and imidazopyrazine derivatives as protease activated receptor 4 (PAR4) inhibitors for treating platelet aggregation” (BRISTOL-MYERS SQUIBB COMPANY, priority 2012, dated 2017).

Experiments:
PAR4 [1] = target: T1, PAR4 (Homo sapiens (Human), UniProt Q96RI0); experiment: FLIPR assay in PAR4-expressing HEK293 cells (PAR4 antagonist activity, calcium mobilization); type: cell-based; conditions: H-Ala-Phe(4-F)-Pro-Gly-Trp-Leu-Val-Lys-Asn-Gly-NH2-induced calcium mobilization
Outline: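 HEK293 EBNA cells stably expressing human PAR4 (also endogenous PAR1) preincubated 30 min at room temperature with compound in HBSS/10 mM HEPES, 0.67% DMSO final. PAR4 agonist peptide then added and intracellular calcium mobilization monitored by fluorescence.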

PAR4 [2] = target: T1, PAR4; experiment: Gamma thrombin induced platelet aggregation assay (PRP assay); type: cell-based; conditions: human platelet rich plasma, 96-well microplate
Method: Platelet aggregation can be monitored in a 96-well microplate aggregation assay format or using standard platelet aggregometer.
The platelet rich plasma was isolated by centrifugation at 170 g for 14 minutes.
The ability of the compounds of the current invention to inhibit platelet aggregation induced by gamma-thrombin was tested in a 96-well microplate aggregation assay format. Briefly, PRP or washed platelet suspension (100 μl) was pre-incubated for 5 minutes at room temperature with varying concentrations of compounds. Aggregation was initiated by ˜10-50 nM gamma thrombin (Haematologic Technologies, Essex Junction, Vt.), which was titrated daily to achieve 80% platelet aggregation. Refludan at 1 U/mL (Berlex, Montville, N.J.) was added to the gamma thrombin sample to prevent PAR1 activation induced by residual alpha-thrombin contamination. The plate was then placed into a 37° C. Molecular Devices (Sunnyvale, Calif.) SPECTRAMAX® Plus Plate Reader. […] The plate also included an untreated control sample which served as ODmax, while buffer containing no platelets was the ODmin. Platelet aggregation was determined by subtracting the ODmax from the ODmin for the 100% aggregation value. In experimental samples, the observed transmission was subtracted from the minimum value and then compared to the 100% aggregation value to determine the percentage aggregation. IC50 values are determined using Excel Fit software.

[3] = tested on: carotid artery thrombosis; experiment: cynomolgus monkey electrolytic injury-induced carotid artery thrombosis model; type: in vivo
[4] = tested on: carotid artery thrombosis; experiment: Cynomolgus monkey electrolytic injury-induced carotid artery thrombosis model; type: in vivo; conditions: oral, electrically-induced arterial thrombus model
Description: The efficacy of the PAR4 antagonists of the present invention in preventing thrombosis can also be measured in a variety of in vivo assays. Exemplary mammals that can provide models of thrombosis and hemostasis to test the effectiveness of the PAR4 antagonists of the present invention as antithrombotic agents include, but are not limited to, guinea pigs and primates. Relevant efficacy models include, but are not limited to, electrolytic injury-induced carotid artery thrombosis, FeCl3-induced carotid artery thrombosis and arteriovenous-shunt thrombosis. […]
On the day of the study, compounds or vehicles were administered orally at 1 to 2 hours before the experiment. […] Blood pressure and heart rate were monitored to maintain normal vital signs.
Carotid blood flow was measured with an appropriately sized TRANSONIC® flow probe and a TRANSONIC® perivascular flowmeter (TS420 Model, Transonic Systems Inc., Ithaca, N.Y.). It was continuously recorded over a 90-min period to monitor thrombosis-induced occlusion. Integrated carotid blood flow was measured by the area under the flow-time curve. It was expressed as percent of total control carotid blood flow, which would result if control blood flow had been maintained continuously for 90 min. […]

PAR1 = PAR1 (Homo sapiens (Human), UniProt P25116); conditions: ACS patients, phase III; cited from earlier work
PAR1, sequence (P25116 22-425): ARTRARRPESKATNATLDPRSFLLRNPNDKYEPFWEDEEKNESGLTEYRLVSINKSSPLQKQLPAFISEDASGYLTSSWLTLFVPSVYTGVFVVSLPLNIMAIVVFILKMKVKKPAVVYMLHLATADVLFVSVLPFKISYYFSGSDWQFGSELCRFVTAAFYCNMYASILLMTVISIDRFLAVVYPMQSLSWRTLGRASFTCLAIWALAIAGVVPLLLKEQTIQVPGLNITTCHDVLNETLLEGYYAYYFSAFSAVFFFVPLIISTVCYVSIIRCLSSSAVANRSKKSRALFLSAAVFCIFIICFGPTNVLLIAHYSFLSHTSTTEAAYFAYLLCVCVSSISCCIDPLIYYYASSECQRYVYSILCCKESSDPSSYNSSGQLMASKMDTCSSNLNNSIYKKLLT

T1 sequence (Q96RI0 18-385): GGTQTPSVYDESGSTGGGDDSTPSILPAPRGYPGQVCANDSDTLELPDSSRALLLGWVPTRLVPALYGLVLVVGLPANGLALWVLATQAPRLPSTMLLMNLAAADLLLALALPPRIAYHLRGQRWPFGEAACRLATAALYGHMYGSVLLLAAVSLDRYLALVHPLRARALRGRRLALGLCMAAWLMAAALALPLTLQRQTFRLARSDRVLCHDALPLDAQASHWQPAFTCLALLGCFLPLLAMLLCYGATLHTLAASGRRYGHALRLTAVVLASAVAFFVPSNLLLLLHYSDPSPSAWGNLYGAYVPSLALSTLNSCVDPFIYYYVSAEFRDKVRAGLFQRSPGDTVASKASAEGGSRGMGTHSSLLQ

Row | Structure (SMILES) | EC50 (PAR4 [1]) [nM] | IC50 (PAR4 [2]) [nM] | further results
1 | COc1cc(OCc2csc(C3(c4ccc(C(=O)N(C)C)cc4)CCOCC3)n2)c2cc(-c3cn4nc(OC)sc4n3)oc2c1 [Example 161, 4-(4-(4-(((6-Methoxy-2-(2-methoxyimidazo[2,1-b][1,3,4]thiadiazol-6-yl)benzofuran-4-yl)oxy)methyl)thiazol-2-yl)tetrahydro-2H-pyran-4-yl)-N,N-dimethylbenzamide] | 0.69 | 27 | –
2 | COc1cc(OCc2csc(N3CCC[C@@H]3C)n2)c2cc(-c3cn4nc(C)ccc4n3)oc2c1 [Example 274] | 3.4 | > 3000 | –
3 | COc1cc(OCc2csc(-c3ccc(F)nc3)n2)c2cc(-c3cn4nc(OC)sc4n3)oc2c1 [Example 73] | 0.35 | 1.9 | –
4 | COc1cc(OCc2csc(-c3ccnc(F)c3)n2)c2cc(-c3cn4nc(OC)sc4n3)oc2c1 [Example 67] | 0.34 | 2.2 | –
5 | COc1cc(OCc2csc(N3CCN(c4cccc(Cl)c4)CC3)n2)c2cc(-c3cn4nc(C)ccc4n3)oc2c1 [Example 268] | 1.7 | 2360 | –
6 | COc1cc(OCc2csc(N3CCN(c4ccc(C)cn4)CC3)n2)c2cc(-c3cn4nc(C)ccc4n3)oc2c1 [Example 285] | 2.9 | 2340 | –
7 | COc1cc(OCc2csc(-c3ccccc3)n2)c2cc(-c3cn4nc(OC)sc4n3)oc2c1 [Example 3, 2-Methoxy-6-(6-methoxy-4-((2-phenylthiazol-4-yl)methoxy)benzofuran-2-yl)imidazo[2,1-b][1,3,4]thiadiazole] | – | – | antithrombotic efficacy (FIG. 1C) [3]: antithrombotic efficacy; antithrombotic efficacy (dose response, FIG. 1C) [4]: demonstrating the in vivo antithrombotic efficacy
8 | COc1cc(OCc2csc(NCCN3CCOCC3)n2)c2cc(-c3cn4nc(C)ccc4n3)oc2c1 [Example 244] | 909 | > 3000 | –
9 | CCc1sc(-c2ccc(C(=O)N(C)C)cc2)nc1COc1cc(OC)cc2oc(-c3cn4nc(OC)sc4n3)cc12 [Example 44, 4-(5-Ethyl-4-(((6-methoxy-2-(2-methoxyimidazo[2,1-b][1,3,4]thiadiazol-6-yl)benzofuran-4-yl)oxy)methyl)thiazol-2-yl)-N,N-dimethylbenzamide] | 0.9 | 2 | –
10 | CCC(F)(c1nc(COc2cc(OC)cc3oc(-c4cn5nc(OC)sc5n4)cc23)cs1)C(F)(F)F (stereo not drawn) [Example 139] | 0.41 | 26 | –
11 | COc1cc(OCc2csc(-c3ccc(Cl)nc3)n2)c2cc(-c3cn4nc(OC)sc4n3)oc2c1 [Example 80] | 0.74 | 0.94 | –
12 | COc1cc(OCc2csc(C3(O)CC(C)OC(C)C3)n2)c2cc(-c3cn4nc(OC)sc4n3)oc2c1 (stereo not drawn) [Example 121, 4-(4-(((6-Methoxy-2-(2-methoxyimidazo[2,1-b][1,3,4]thiadiazol-6-yl)benzofuran-4-yl)oxy)methyl)thiazol-2-yl)-2,6-dimethyltetrahydro-2H-pyran-4-ol] | 0.27 | 27 | –
13 | COc1cc(OCc2csc(-c3ccc(Cl)cc3)n2)c2cc(-c3cn4nc(C)ccc4n3)oc2c1 [Example 209, 2-(4-Chlorophenyl)-4-(((6-methoxy-2-(6-methylimidazo[1,2-b]pyridazin-2-yl)benzofuran-4-yl)oxy)methyl)thiazole] | 1.2 | 23 | –
14 | CCOC(=O)N[C@@H]1CC[C@@H]2[C@@H](C1)C[C@H]1C(=O)O[C@H](C)[C@H]1[C@H]2/C=C/c1ccc(-c2cccc(F)c2)cn1 [vorapaxar] | – | – | cardiovascular events (PAR1): did not significantly reduce cardiovascular events; risk of major bleeding (PAR1): significantly increased the risk of major bleeding
15 | COc1cc(OCc2csc(N3CCN(CCO)CC3)n2)c2cc(-c3cn4nc(C)ccc4n3)oc2c1 [Example 243] | 32 | > 3000 | –
16 | COc1cc(OCc2csc(-c3ccc(C(=O)N(C)CCC#N)cc3)n2)c2cc(-c3cn4nc(OC)sc4n3)oc2c1 [Example 311] | 0.65 | 2 | –
17 | COc1cc(OCc2csc(Nc3ccc4[nH]ccc4c3)n2)c2cc(-c3cn4nc(C)ccc4n3)oc2c1 [Example 261] | 39 | > 3000 | –
18 | COc1cc(OCc2csc(C3(O)CCOCC3)n2)c2cc(-c3cn4nc(OC)sc4n3)oc2c1 [Example 118, 4-(4-(((6-Methoxy-2-(2-methoxyimidazo[2,1-b][1,3,4]thiadiazol-6-yl)benzofuran-4-yl)oxy)methyl)thiazol-2-yl)tetrahydro-2H-pyran-4-ol] | 0.33 | 25 | –
